Columns and labels:
cellular reprogramming = test: Enhancement of cellular reprogramming by nuclear receptor ligands; format: cell-based
OG2 MEFs = test: Reprogramming of OG2 MEFs retrovirally transduced with OSKM or OSK (EGFP positive colonies); format: cell-based, mouse; conditions: 2 μM SB431542, 5 μM CHIR99021, 0.1 μM PD0325901
Description: MEFs were derived from OG2 mice according to the protocol reported on WiCell Research Institute website: “Introduction to human embryonic stem cell culture methods”. OG2 transgenic mice carry both GFP under the control of the Oct4 promoter. MEFs were transduced with either (1) Oct4, Klf4, Sox2 and c-Myc; or (2) Oct4, Klf4, and Sox2 as described (Takahashi & Yamanaka, Cell. 2006; 126:663-676). […] Transduced MEFs were then treated with chemicals or chemical combinations, including GSK-3 inhibitor CHIR99021 (5 μM), TGFβ receptor inhibitor SB431542 (2 μM), MEK inhibitor PD0325901 (0.1 μM) for 11 days (for Oct4, Klf4, Sox2 and c-Myc transduced MEFs) or 13 days (for Oct4, Klf4 and Sox2 transduced MEFs), and EGFP positive colonies were counted.

mouse fibroblasts = test: Reprogramming of mouse fibroblasts with exogenous poly-Arg transcription factor proteins; format: cell-based; conditions: cells incubated with transcription factor proteins plus agent
Description: Mouse fibroblasts were grown in mESC medium supplemented with 8 μg/ml of either Oct4/Sox2/Klf4 or Oct4/Sox2/Klf4/Myc (all proteins comprising poly-Arg as described above) for 6-8 hours, washed, and incubated for 2-3 days in mESC media without the above-listed transcription factors. This (4-12 hours with, 1-3 days without) was repeated a number (1, 2, 3, 4, or more) of times and then the cells were cultured in mESC for two weeks.
Mouse fibroblasts were grown in mESC growth medium [Knockout DMEM (Invitrogen) supplemented with 10% ES-FBS+10% KSR, 0.1 mM 2-ME, 1% Glutamax, 1% Non-essential amino acids, 1% EmbryoMax ESC Qualified Nucleosides (Millipore), and 10^3 units/ml LIF (ESGRO, Chemicon International)] supplemented with 8 μg/ml of Oct4/Sox2/Klf4/Myc (all four transcription factors are tagged with poly-Arg […]; SEQ ID NO:2) for 4-12 hours, followed by culturing the cells in the absence of the Oct4/Sox2/Klf4/Myc polypeptides for one day. This procedure was repeated 4 times. The cells were then cultured in mESC medium for another two weeks. iPSC clones were detected by colony morphology and expression of pluripotency markers. An intermediate iPSC clone, which expresses ALP but not Oct4 (Oct4), was dissociated with Trypsin-EDTA. The clone was then expanded by continuous culturing with regular mESC medium or medium supplemented with 0.5 μM PD0325901, 3 μM CHIR99021, 0.5 μM A-83-01. The number of Oct4-positive colonies were counted 2 weeks after small molecule treatment (FIG. 14).

[1] = tested on: human primary fibroblasts (CRL2097 or BJ); test: Reprogramming of human primary fibroblasts transduced with 4TFs; format: cell-based
Description: We tested known inhibitors of the TGFβ receptor and MEK on 1×10^4 [Feng, B. et al., Cell Stem Cell 4, 301-12 (2009)] human primary fibroblasts (CRL2097 or BJ) that were retrovirally transduced with the 4TFs (Oct4, Klf4, Sox2 and c-Myc), for their effects on reprogramming kinetics and efficiency. On day 7 (D7) post-infection, the compounds were added, individually or in combinations, and the cultures were examined for iPSCs over the next 1-3 weeks.
The Slc7a1-expressing human fibroblast cells were seeded at 1×10^5 cells/well of a 6 well plate on the day 1. On day 2, 0.25 ml of each retroviral supernatant was added to the cells in the presence of 6 μg/ml polybrene. A second round of transduction was done on day 3. Infection efficiency was estimated by fluorescence microscopy on cells transduced in parallel with GFP or RFP gene-carrying retroviruses. Seven days after initial transduction, fibroblasts were harvested by trypsinization and re-plated at 1×10^4 cells/well of a 6 well plate coated with matrigel (1:50 dilution, cat 354234, BD Biosciences). For compound treatment, the cells were cultured in human reprogramming medium (DMEM/F12, 20% Knockout serum replacer, lx MEM Non-Essential amino acid, lx glutamax, 0.11 mM 2-Mercaptoethanol, 20 ng/ml bFGF and 1,000 U/ml LIF) and were treated with 2 μM SB431542 (Stemgent), 0.5 μM PD0325901 (Stemgent), or combinations of the compounds. The media were changed every 2-3 days depending on the cell density. Seven days after compound treatment, either the plates were fixed and stained for Alkaline phosphatase (ALP) activity, or stained for protein markers, or the cultures were continued with or without indicated splitting by trypsinization till day 30. For split cultures, the cells were split (1:4) and re-plated onto irradiated CF-1 MEF feeder layer (2.5×10^5 cells/well) in each well of 6 well plate and were split (1:10) again on day 21. The cells were maintained in the same media and compound cocktail described above except for the concentrations of PD0325901 (0.5 μM for D14 and 1 μM for D21) and SB431542 (0.5-1 μM after D14). The iPSC colonies were subsequently maintained in conventional hESC media in the absence of the above compounds.
Alkaline phosphatase staining was performed using ALP detection kit (cat no: SCR004, Chemicon) according to the product instructions. For immunocytochemistry, cells were fixed in 4% paraformaldehyde (10 min, RT), washed twice with PBS, blocked using 5% normal donkey serum (Chemicon) and 0.1% TritonX-100 (15 min, RT) and then treated with primary antibodies overnight at 4° C. The primary antibodies used were anti-NANOG (cat no: AB9220, Chemicon, 1:1,000); anti-OCT4 (cat no: sc-5279, Santa Cruz biotech, 1:200), anti-SSEA 4 (cat no: mab4304, Chemicon, 1:500), anti-Tra-1-81 (cat 560123, BD Biosciences, 1:100), anti-Tra-1-81 (mAb 4381, Chemicon, 1:500), anti-βIII TUBULIN (cat no: MMS-435P, Covance Research Products Inc, 1:1000), anti-PDX 1 (1:500) (a kind gift from Dr. C. Wright), anti-BRACHYURY (cat No: AF2085, R & D, final concentration 0.2 μg/ml). The cells were washed twice with PBS and then treated with secondary antibodies for 1 hour at room temperature. The secondary antibodies used were Alexa fluor 488 donkey anti-rabbit or anti-mouse IgG (Invitrogen, 1:1,000) and Alexa fluor 555 donkey anti-rabbit or anti-mouse IgG (Invitrogen, 1:1,000). Nuclei were stained with 0.5 μg/ml DAPI (Sigma). Images were captured using a Nikon Eclipse TE2000-U/X-cite 120 EXFO microscope with a photometric CoolSnap HQ2 camera.
We tested the TGFβ receptor inhibitor (SB431542), MEK inhibitor (PD0325901) and GSK-3 inhibitor (CHIR99021), on human fibroblast crl2097 that were retrovirally transduced with Oct4, Klf4, Sox2 and c-Myc, for their effects on reprogramming kinetics and efficiency. Conditions are the same as set forth in Example 5. Data were collected 8 days after compound treatment.

C=C(c1ccc(C(=O)O)cc1)c1cc2c(cc1C)C(C)(C)CCC2(C)C [Bexarotene]
cellular reprogramming (cellular reprogramming; at 3 μM): can enhance cellular reprogramming

NC(=O)c1ccc(-c2nc(-c3ccc4c(c3)OCO4)c(-c3ccccn3)[nH]2)cc1 [SB431542]
reprogramming efficiency (OG2 MEFs; Oct4, Klf4, Sox2 and c-Myc transduced MEFs, 11-day treatment): ~1.8%
reprogramming efficiency (OG2 MEFs; Oct4, Klf4, and Sox2 transduced MEFs, 13-day treatment): ~1.2%
efficiency and speed of development of pluripotent cells (mouse fibroblasts): improved efficiency and speed of development of pluripotent cells
ALP+ colonies with hESC-like morphology (FIG. 7A) ([1]; 4TFs transduced fibroblasts, 7 days after compound treatment, SB431542 at 2 μM): yielded colonies with hESC-like morphology as early as 7 days after compound treatment
number of granulate (partially reprogrammed) colonies ([1]; 30 days): outnumbered by several fold the few hESC-like colonies
dose dependence of effect on reprogramming ([1]; FIG. 7): dose dependent
ALP+ colonies with characteristic hESC-like morphology ([1]; day 7 post-treatment (D14), SB431542 2 μM, PD0325901 0.5 μM, 1×10^4 cells): 1-2 colonies

CC(C)C[C@H](NC(=O)OCC1c2ccccc2-c2ccccc21)C(=O)O [Fmoc-Leu]
cellular reprogramming (cellular reprogramming; used at 5 μM): can enhance cellular reprogramming
